# Data published in publication PMC9612383, “Biological Activity of NHC-Gold-Alkynyl Complexes Derived from 3-Hydroxyflavones” (Pharmaceutics, 2022).
# Like-named read-outs stand apart in the source and are kept apart here.
# Legend:
# Caco-2 cells [1] = test: MTT antiproliferative assay; assay type: cell-based, Human; settings: for IC50: Caco-2 cell line, 72 h incubation, mean ± SE
# Method: Human colorectal adenocarcinoma Caco-2 cells were kindly provided by Dr. Edith Brot-Laroche (Universite Pierre et Marie Curie-Paris 6 UMR S872, Les Cordeliers, France) and were maintained in a humidified atmosphere of 5% CO2 at 37 °C in Dulbecco’s Modified Eagles medium (DMEM) (Gibco Invitrogen, Paisley, UK) supplemented with 20% fetal bovine serum, 1% non-essential amino acids, 1% penicillin (1000 U/mL), 1% streptomycin ([…]) and 1% amphotericin (250 U/mL). For treatment, gold complexes were initially dissolved in DMSO to a concentration of 20 mM and then diluted on cell culture without fetal bovine serum to the required work concentrations, which was added 24 h post-seeding. Then, cells were incubated at 37 °C for the required time for each assay.
# Cell viability was determined with the 3-(4,5-dimethyl-2-thiazoyl)-2,5-diphenyltetrazolium bromide (MTT) assay as previously described by Mármol et al.. For IC50 calculation, cells were grown in 96-well plates at a density of 4000 cells per well and incubated overnight at standard culture conditions. Then, cells were exposed 72 h to 0–20 μM of each gold complex and changes in absorbance were converted into percentage of growth inhibition in comparison to negative control (DMSO. Absorbance was measured with SPECTROstar Nano (BMG Labtech).
# [2] = n-Octanol-water distribution coefficient, shake-flask; assay type: physicochemical; settings: for LogP7.4 (distribution coefficient): n-octanol / buffered aqueous solution pH 7.4
# Method: The n-octanol-water coefficients of the complexes were determined as previously reported using a shake-flask method. Buffered-saline distilled water (100 mL, phosphate buffer [PO4^3−] = 10 mM, [NaCl] = 0.15 M, pH 7.4) and n-octanol (100 mL) were shaken for 72 h to allow saturation of both phases. Approximately 1 mg of the complexes was dissolved in 5 mL of the aqueous phase and 5 mL of the organic phase were added, mixing for 10 min. The resulting emulsion was centrifuged to separate the phases. The concentration of the compounds in each phase was determined using UV absorbance spectroscopy. LogP was defined as log{[compound(organic)]/[compound(aqueous)]}.
# [3] = test system: panel of Gram-positive and Gram-negative strains; test: Disk diffusion method, whole panel (summary in words); assay type: cell-based; settings: for antibacterial effect (in words): whole panel, Gram-positive and Gram-negative strains
# Method: (§1) To evaluate the antibacterial potential of gold derivatives, […] bacterial strains were selected: E. coli, P. aeruginosa, S. enterica, E. faecalis, L. monocytogenes, S. epidermidis, S. aureus. Dis diffusion assay was performed following Clinical & Laboratory Standards Institute (CLSI) recommendations. Active cultures (0.5 McFarland) from all strains were spread onto Mueller–Hinton Agar (MHA, Oxoid, Basingstoke, UK) and disks impregnated with 10 µL of each gold complex or control (DMSO for negative control, phenol for positive control) were placed. Plates were and incubated for 22 h ± 2 h at 37 °C ± 1 °C and then the diameter of the inhibition zone was determined.
# Given that NHC-gold derivatives might display antibacterial activity, we evaluated the antibacterial effect of the complexes toward a panel of Gram-positive and Gram-negative strains using the disk diffusion method. The selected strains are human pathogen or commensal bacteria and the results are summarized on Table 1.
# P. aeruginosa = test: Disk diffusion test; assay type: cell-based; settings: for Inhibition Zone: complex 5 μg, 24 h incubation, diameter including disk (6 mm)
# Method: (§2) To evaluate the antibacterial potential of gold derivatives, six bacterial strains were selected: E. coli, P. aeruginosa, S. enterica, E. faecalis, L. monocytogenes, S. epidermidis, S. aureus. Dis diffusion assay was performed following Clinical & Laboratory Standards Institute (CLSI) recommendations. […] Plates were and incubated for 22 h ± 2 h at 37 °C ± 1 °C and then the diameter of the inhibition zone was determined.
# E. coli 8739 = test: Disk diffusion test; assay type: cell-based
# Method: as §2
# E. coli 13216 = test: Disk diffusion test; assay type: cell-based
# Method: as §2
# S. epidermidis = test: Disk diffusion test; assay type: cell-based; settings: for Inhibition Zone: complex 5 μg, 24 h incubation, diameter including disk (6 mm)
# Method: as §2
# S. aureus 2593 = test: Disk diffusion test; assay type: cell-based; settings: for Inhibition Zone: complex 5 μg, 24 h incubation, diameter including disk (6 mm)
# Method: as §2
# E. faecalis = test: Disk diffusion test; assay type: cell-based; settings: for Inhibition Zone: complex 5 μg, 24 h incubation, diameter including disk (6 mm)
# Method: as §2
# S. aureus 13565 = test: Disk diffusion test; assay type: cell-based; settings: for Inhibition Zone: complex 5 μg, 24 h incubation, diameter including disk (6 mm)
# Method: as §2
# L. monocytogenes = test: Disk diffusion test; assay type: cell-based; settings: for Inhibition Zone: complex 5 μg, 24 h incubation, diameter including disk (6 mm)
# Method: as §2
# Caco-2 cells [4] = test system: Caco-2 cells; set-up: method as in PMID 31546196; settings: earlier work of the authors; cited from earlier work
# [5] = test system: thioredoxin reductase enzyme; set-up: method as in PMID 31546196; settings: earlier work of the authors; cited from earlier work
# S. enterica 25928 = test: Disk diffusion test; assay type: cell-based; settings: Salmonella enterica, 25928; positive control 5.35 mg, 24 h incubation; diameter including disk (6 mm)
# Method: as §1
# E. coli 25922 = test: Disk diffusion test; assay type: cell-based; settings: Escherichia coli, 25922, 24 h, read-out: Inhibition Zone
# Method: as §2
# S. enterica 14028 = test: Disk diffusion test; assay type: cell-based; settings: Salmonella enterica, 14028, 24 h, read-out: Inhibition Zone
# Method: as §2
# [6] = set-up: method as in PMID 31546196; settings: cited from earlier work
# Caco-2 cells [7] = test system: Caco-2 cells; set-up: method as in PMID 31546196; settings: cited from earlier work
# [8] = complex 5 μg, 24 h incubation, diameter including disk (6 mm)
compound,measurement,setting,value
"COc1ccc(-c2oc3ccccc3c(=O)c2OCC#[C][Au-][c]2n(-c3c(C(C)C)cccc3C(C)C)cc[n+]2-c2c(C(C)C)cccc2C(C)C)cc1 [2d, [Au(Ld)(IPr)] (R = OMe; IPr = C27H38N2)]",IC50,Caco-2 cells [1],48.2 ± 14.6 µM
same,LogP7.4 (distribution coefficient),[2],3.40
same,antibacterial effect (in words),[3],no antibacterial effect
"CC(C)c1cccc(C(C)C)c1-n1cc[n+](-c2c(C(C)C)cccc2C(C)C)[c]1[Au-][C]#CCOc1c(-c2ccc(Br)cc2)oc2ccccc2c1=O [2b, [Au(Lb)(IPr)] (R = Br; IPr = C27H38N2)]",IC50,Caco-2 cells [1],53.9 ± 22.7 µM
same,LogP7.4 (distribution coefficient),[2],1.47
same,Inhibition Zone,P. aeruginosa,-
same,Inhibition Zone,E. coli 8739; [8],8.97 ± 0.49 mm
same,Inhibition Zone,E. coli 13216; [8],8.10 ± 0.60 mm
same,Inhibition Zone,S. epidermidis,20.95 ± 0.91 mm
same,Inhibition Zone,S. aureus 2593,12.79 ± 1.11 mm
same,Inhibition Zone,E. faecalis,12.1 ± 0.99 mm
same,Inhibition Zone,S. aureus 13565,14.03 ± 0.17 mm
same,Inhibition Zone,L. monocytogenes,17.17 ± 0.24 mm
same,antibacterial effect (in words),[3],able to interfere with the development of both Gram positive and Gram negative strains
"Cn1cc[n+](C)[c]1[Au-][C]#CCOc1c(-c2ccc(Cl)cc2)oc2ccccc2c1=O [1c, [Au(Lc)(IMe)] (R = Cl; IMe = C5H10N2)]",IC50,Caco-2 cells [1],15.1 ± 3.04 µM
same,LogP7.4 (distribution coefficient),[2],1.96
same,antibacterial effect (in words),[3],no antibacterial effect
O=c1c(OCC#[C][Au][PH](c2ccccc2)(c2ccccc2)c2ccccc2)c(-c2ccc(Br)cc2)oc2ccccc12 [[Au(L2b)PPh3]],ROS levels (in words),Caco-2 cells [4],induce an increase in ROS levels
same,thioredoxin reductase inhibition (in words),[5],able to inhibit thioredoxin reductase enzyme
"Oc1ccccc1 [Phenol, reference compound]",zone of inhibition at 5350 µg/disc,S. enterica 25928,19.2 ± 0.42 mm
same,zone of inhibition at 5350 µg/disc,"P. aeruginosa; Pseudomonas aeruginosa, 24 h, read-out: Inhibition Zone",30.5 ± 1.45 mm
same,zone of inhibition at 5350 µg/disc,E. coli 25922,23.4 ± 1.26 mm
same,zone of inhibition at 5350 µg/disc,"E. coli 8739; Escherichia coli, 8739, 24 h, read-out: Inhibition Zone",22.7 ± 1.37 mm
same,zone of inhibition at 5350 µg/disc,"E. coli 13216; Escherichia coli, 13216, 24 h, read-out: Inhibition Zone",20.7 ± 2.97 mm
same,zone of inhibition at 5350 µg/disc,"S. epidermidis; Staphylococcus epidermidis, 24 h, read-out: Inhibition Zone",22.7 ± 4.49 mm
same,zone of inhibition at 5350 µg/disc,S. enterica 14028,27.8 ± 1.11 mm
same,zone of inhibition at 5350 µg/disc,"S. aureus 2593; Staphylococcus aureus, 2593, 24 h, read-out: Inhibition Zone",12.1 ± 0.73 mm
same,zone of inhibition at 5350 µg/disc,"E. faecalis; Enterococcus faecalis, 24 h, read-out: Inhibition Zone",13.5 ± 2.12 mm
same,zone of inhibition at 5350 µg/disc,"S. aureus 13565; Staphylococcus aureus, 13565, 24 h, read-out: Inhibition Zone",17.2 ± 3.38 mm
same,zone of inhibition at 5350 µg/disc,"L. monocytogenes; Listeria monocytogenes, 24 h, read-out: Inhibition Zone",16.58 ± 0.12 mm
"COc1ccc(-c2oc3ccccc3c(=O)c2OCC#[C][Au-][c]2n(C)cc[n+]2C)cc1 [1d, [Au(Ld)(IMe)] (R = OMe; IMe = C5H10N2)]",IC50,Caco-2 cells [1],16.3 ± 1.04 µM
same,LogP7.4 (distribution coefficient),[2],0.22
same,Inhibition Zone,P. aeruginosa,-
same,Inhibition Zone,S. epidermidis,17.23 ± 0.87 mm
same,Inhibition Zone,S. aureus 2593,9.70 ± 0.02 mm
same,Inhibition Zone,E. faecalis,9.47 ± 1.67 mm
same,Inhibition Zone,S. aureus 13565,11.86 ± 0.20 mm
same,Inhibition Zone,L. monocytogenes,14.25 ± 1.06 mm
same,antibacterial effect on Gram-negative strains (in words),[3],inactive against Gram-negative strains
same,antibacterial effect on Gram-positive strains (in words),[3],able to inhibit the growth of all Gram-positive bacterial strains
"Cn1ccn(C)[c]1=[Au-2][Cl] [[AuCl(IMe)], reference compound]",IC50,Caco-2 cells [1],> 100 µM
same,antiproliferative effect (in words),Caco-2 cells [1]; Caco-2 cells,ineffective
"CC(C)c1cccc(C(C)C)c1-n1cc[n+](-c2c(C(C)C)cccc2C(C)C)[c]1[Au-][C]#CCOc1c(-c2ccc(Cl)cc2)oc2ccccc2c1=O [2c, [Au(Lc)(IPr)] (R = Cl; IPr = C27H38N2)]",IC50,Caco-2 cells [1],46.1 ± 22.5 µM
same,LogP7.4 (distribution coefficient),[2],1.11
same,Inhibition Zone,P. aeruginosa,-
same,Inhibition Zone,S. epidermidis,18.06 ± 2.04 mm
same,Inhibition Zone,S. aureus 2593,10.49 ± 1.13 mm
same,Inhibition Zone,E. faecalis,10.25 ± 1.41 mm
same,Inhibition Zone,S. aureus 13565,12.19 ± 0.88 mm
same,Inhibition Zone,L. monocytogenes,15.33 ± 0.47 mm
same,antibacterial effect on Gram-negative strains (in words),[3],inactive against Gram-negative strains
same,antibacterial effect on Gram-positive strains (in words),[3],able to inhibit the growth of all Gram-positive bacterial strains
O=c1c(OCC#[C][Au][PH](c2ccccc2)(c2ccccc2)c2ccccc2)c(-c2ccc(Cl)cc2)oc2ccccc12 [[Au(L2c)PPh3]],distribution coefficient value,[6],1.17
same,IC50,Caco-2 cells [7],5.34 ± 0.05 µM
"CC(C)c1cccc(C(C)C)c1-n1cc[n+](-c2c(C(C)C)cccc2C(C)C)[c]1[Au-][C]#CCOc1c(-c2ccccc2)oc2ccccc2c1=O [2a, [Au(La)(IPr)] (R = H; IPr = C27H38N2)]",fold lower IC50 of 2a than homologue 1a,"Caco-2 cells [1]; Caco-2, 72 h, p < 0.05",2.65 times
same,IC50,Caco-2 cells [1],16.3 ± 2.04 µM
same,lipophilic character (in words),"[2]; from log P, pH 7.4",balanced hydrophilic-lipophilic character
same,LogP7.4 (distribution coefficient),[2],0.42
"CC(=O)OC[C@H]1O[C@@H]([S-])[C@H](OC(C)=O)[C@@H](OC(C)=O)[C@@H]1OC(C)=O.CCP(CC)CC.[Au+] [Auranofin, 2,3,4,6-tetraacetyl-1-thio-β-D-glucopyranosato-S-triethylphosphane gold(I), reference compound]",IC50,Caco-2 cells [1],1.8 ± 0.1 µM
same,LogP7.4 (distribution coefficient),[2],−2.53
"Cn1cc[n+](C)[c]1[Au-][C]#CCOc1c(-c2ccccc2)oc2ccccc2c1=O [1a, [Au(La)(IMe)] (R = H; IMe = C5H10N2)]",IC50,Caco-2 cells [1],43.3 ± 5.06 µM
same,LogP7.4 (distribution coefficient),[2],0.34
same,antibacterial effect (in words),[3],no antibacterial effect
"CC(C)c1cccc(C(C)C)c1-n1ccn(-c2c(C(C)C)cccc2C(C)C)[c]1=[Au][Cl] [[AuCl(IPr)], reference compound]",IC50,Caco-2 cells [1],9.09 ± 3.22 µM
